The values below come from patent publication US20100323990A1, “SHIP 1 MODULATOR PRODRUGS” (THE UNIVERSITY OF BRITISH COLUMBIA, priority 2006, published 2010).

One data set concerns MM cell lines. In words: In vitro Multiple Myeloma (MM) assay (Assay 7). On Assay 7: In vitro Multiple Myeloma (MM) assay, desired activity: key: a ‘+’ indicates a positive result for desired activity; a ‘−’ indicates a negative result for desired activity. Type of data set: cell-based. The note with it: for Assay 7: In vitro Multiple Myeloma (MM) assay, desired activity: viable cell number by trypan blue, [3H]-thymidine. The protocol:
(§1) Assay 1) In vitro testing in a SHIP enzyme assay. Test compounds were dissolved in a suitable solvent (e.g. EtOH, DMSO and others) and diluted into aqueous buffer (20 mM Tris HCl, pH 7.5 and 10 mM MgCl2). SHIP enzyme assays were performed in 96-well microtitre plates with 10 ng of enzyme/well in a total volume of 25 μL of 20 mM Tris HCl, pH 7.5 and 10 mM MgCl2. SHIP enzyme was incubated with test extracts (provided in solvent) or vehicle for 15 min at 23° C. before the addition of 100 μM inositol-1,3,4,5-tetrakisphosphate (Echelon Biosciences Inc, Salt Lake City, Utah). After 20 min at 37° C. and the amount of inorganic phosphate released assessed by the addition of Malachite Green reagent and absorbance measurement at 650 nm. Assay 2) Macrophage TNF-α production. J774.1a macrophage cells were treated with 10 μg/mL of test compound dissolved in solvent (e.g. cyclodextran) for 40 minutes prior to the addition of 100 ng/mL LPS. Culture supernatants were collected after 2 hr and 5 hr for TNF-α determination by ELISA. Assay 3) Macrophage TNF-α NO assay. J774.1a macrophage cells were treated with 10 μg/ml of test compound dissolved in solvent for 40 minutes prior to the addition of LPS. Culture supernatants were collected after 24 hr. for determination of NO concentration using the Griess reagent. Assay 4) Stimulation of mast cells by FcεRI crosslinking. Mast cells were pre-loaded overnight in BMMC medium lacking IL-3 with 0.1 μg/ml anti-DNP IgE (SPE-7, Sigma, Oakville, Ont). For calcium flux measurements, cells were incubated with 2 μM fura 2-acetoxymethyl ester (Molecular Probes, Eugene, Oreg.) in Tyrode's buffer at 23° C. for 45 min. Cells were then washed and incubated in the presence of the test compound 30 min prior to stimulation with the indicated concentration of DNP-human serum albumin (DNP-HSA). Calcium influx was monitored by spectrofluorometry as described previously. For analysis of intracellular signaling, cells were pre-loaded with anti-DNP IgE as above, pre-treated with the test compound for 30 min at 37° C. and stimulated with 20 ng/ml DNP-HSA for 5 min. Total cell lysates were then prepared and analyzed for phospho-PKB, phospho-p38^MAPK, phospho-MAPK, Grb-2 (Cell Signalling, Mississauga, Ont) and SHIP^6 by immunoblot analysis. Assay 5) Mouse acute cutaneous anaphylaxis model. 6-8 week old CD1 mice (University of British Columbia Animal Facility, Vancouver, BC) were sensitized to the hapten DNP by cutaneous application of 25 μL of 0.5% dinitrofluorobenzene (DNFB) (Sigma, Oakville, Ont) in acetone to the shaved abdomen of mice for two consecutive days. 24 hrs later, test substances (dissolved in 10 μL of 1:2 DMSO:MeOH) were painted on the right ear while the left ear received vehicle control. 30 min after drug application, DNFB was applied to both ears to induce mast cell degranulation. A 6 mm punch was taken from the ear and immediately frozen on dry ice for subsequent determination of neutrophil myeloperoxidase (MPO) activity. Assay 6) Mouse endotoxemia model. 6-8 week old C57B16 mice (VCHRI Mammalian Model of Human Disease Core Facility, Vancouver, BC) were orally administered the test compound 30 min prior to an IP injection of 2 mg/kg of LPS (E. Coli serotype 0111:B4, Sigma, Oakville, Ont). Blood was drawn 2 hrs later for determination of plasma TNFα by ELISA. Assay 7) In vitro Mulitple Myeloma (MM) assay. The ability of SHIP activators to reduce tumor cell survival was assessed in MM cell lines treated with the test compound. The lines OPM1, OPM2, MM.1S and RPMI 8226 were plated at a density of 1×10^5 cells/mL in 200 μL of medium with various concentrations of the test compound, and viable cell numbers were determined on day 3 and day 5 by trypan blue exclusion. The lines RPMI 8226 and U266 were plated at a density of 1×10^6 cells/mL in 250 μL of medium with various concentrations of the test compound. At day 4, the medium of each culture was replaced by fresh medium containing the same concentration of test compound. […]

In data set [1] the test system is luciferase expressing OPM2 cells. In words: In vivo Multiple Myeloma (MM) assay (Assay 8), OPM2 xenograft. The arrangement: species or system mice. The note with it: 50 mg/kg every 3 days, subcutaneous oil depot. The procedure: Assay 8) In vivo Multiple Myeloma (MM) assay. Mice were inoculated with at two sites each with 3×10^6 luciferase expressing OPM2 cells suspended in 50 μL of growth medium and 50 μL of Matrigel basement membrane matrix (Becton Dickenson; Bedford, Mass.). Tumors were injected subcutaneously in the upper and lower flanks of the mice and allowed to establish for 2 weeks. After 2 weeks, a test compound or control vehicle was administered in a subcutaneous oil depot at a dose of 50 mg/kg every 3 days.
Tumors were measured using bioluminescence imaging on the Xenogen IVIS 200. Mice received intra-peritoneal injections of 200 μL of D-luciferin at 3.75 mg/mL in sterile PBS. Mice were then anesthetized with isofluorane and imaged 15 minutes post-injection of luciferin. Quantification of tumor size was performed using the Living Image™ software.
MM Xenograft murine model. Mice were inoculated with at two sites each with 3×10^6 luciferase expresseing OPM2 cells suspended in 50 μL of growth medium and 50 μL of Matrigel basement membrane matrix (Becton Dickenson; Bedford, Mass.). Tumors were injected subcutaneously in the upper and lower flanks of the mice and allowed to establish for 2 weeks. […]
Tumors were measured using bioluminescence imaging on the Xenogen IVIS 200. […] Quantification of tumor size was performed using the Living Image™ software. […]

In the next data set the test system is J774.1a macrophage cells. Description: Macrophage TNF-α NO assay (Assay 3), Griess reagent. Further: key: a ‘+’ indicates a positive result for desired activity; a ‘−’ indicates a negative result for desired activity. Type of data set: cell-based. Conditions: 10 μg/ml test compound, LPS, supernatants after 24 hr. The method in brief:
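J774.1a macrophages pretreated 40 min with 10 μg/mL compound, then LPS (100 ng/mL for TNF-α); TNF-α by ELISA in supernatants at 2 and 5 h, NO by Griess at 24 h. Mast cells IgE-loaded (anti-DNP), compound 30 min, DNP-HSA challenge; calcium flux by fura-2 spectrofluorometry, signalling by immunoblot.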
Background: Nitrite, measured by Griess reagent, commonly stands in for NO production.

Data set [2] can be described thus: Initial toxicology studies. In kind it is in vivo. The note with it: data not shown. From the text: A novel paradigm for inhibiting PI3K signaling through activation of the phosphatases that negatively regulate this pathway is provided. SHIP is a particularly good target for immune/hematopoietic disorders because of its restricted expression to hematopoietic cells. Because the relative activity of phosphatases present in a cell will influence the efficacy of kinase inhibitors, as discussed by Knight and Shokat, SHIP agonists may also be used to potentiate the activation of PI3K inhibitors and promote tissue targeting of PI3K inhibitors to the ematopoietic/immune cell compartment.

In a further data set the test system is plasma TNFα. Description: Mouse endotoxemia model (Assay 6), plasma TNFα by ELISA. Type of data set: in vivo, mice. Conditions: for Assay 6: Mouse endotoxemia model, desired activity: oral, 30 min prior to IP 2 mg/kg LPS, plasma TNFα 2 hrs later. The procedure: as §1, with “6-8 week old C57B16 mice (VCHRI Mammalian Model of Human Disease Core Facility, Vancouver, BC) were orally administered the test compound 30 min prior to an IP injection of 2 mg/kg of LPS (E. Coli serotype 0111:B4, Sigma, Oakville, Ont). Blood was drawn 2 hrs later for determination of plasma TNFα by ELISA. Assay 7) In vitro Mulitple Myeloma (MM) assay.” left out, “exclusion.” for “exclusion. The lines RPMI 8226 and U266 were plated at a density of 1×10^6 cells/mL in 250 μL of medium with various concentrations of the test compound. At day 4, the medium of each culture was replaced by fresh medium containing the same concentration of test compound.”

For `Cc1cc(O)c(O)c2c1[C@]1(C)CCC3C(C)(C)CCC[C@]3(C)[C@H]1C2` (some centres unmarked) [AQX-016A], the “Assay 7: In vitro Multiple Myeloma (MM) assay, desired activity” value with MM cell lines was “+”. In data set [1], the “Assay 8: In vivo Multiple Myeloma (MM) assay, desired activity” value is “+”. Besides, the “Assay 3: Macrophage NO assay, desired activity” value with J774.1a macrophage cells is listed as “+”. Besides, in data set [2], the “peripheral blood cell counts and bone marrow progenitor numbers” value is reported as “do not significantly affect”; the tolerability entry is reported as “well tolerated”. Also, in the data set on plasma TNFα, the “Assay 6: Mouse endotoxemia model, desired activity” value is “+”.
For `Cc1cc(O)cc2c1[C@]1(C)CCC3C(C)(C)CCC[C@]3(C)[C@H]1C2` (some centres unmarked) [Compound 100], the “MM proliferation / tumor cell survival, comparison” value in the data set on MM cell lines (OPM1, OPM2, MM.1S, RPMI 8226, U266, trypan blue) is “inhibits MM proliferation at lower concentrations than AQX-016A”. Moreover, in the data set on MM cell lines, the “Assay 7: In vitro Multiple Myeloma (MM) assay, desired activity” value is on record as “+”. The “Assay 8: In vivo Multiple Myeloma (MM) assay, desired activity” value in data set [1] is “+”. Further, the “Assay 3: Macrophage NO assay, desired activity” value in the data set with J774.1a macrophage cells is “+”. In addition, in data set [2], the “peripheral blood cell counts and bone marrow progenitor numbers” value is given as “do not significantly affect”; the tolerability entry was “well tolerated”. Moreover, the “LPS-induced plasma/serum TNFα levels” value with plasma TNFα (oral administration 30 min prior to LPS) was “efficiently inhibited”. Also, the “Assay 6: Mouse endotoxemia model, desired activity” value in the data set on plasma TNFα is “+”.
